Four molecules from paper PMC3640414 (Journal of Medicinal Chemistry, 2013) can be followed below.

Assay [1] relates to A549 (lung adenocarcinoma) cells. Briefly: MTS cytotoxicity assay, A549 cells. In kind it is cell-based. Particulars: 100 μM, 72 h. An excerpt:
(§1) We also investigated the effects of 8 and 9 in two lung adenocarcinoma cell lines, A549 and H1975. […] H1975 appeared to be somewhat more sensitive to these compounds, a finding confirmed by a clonogenic survival assay (Supporting Information Figure S5).
(§2) Viability of MV4;11, H549, and H1975 cells was monitored by MTS-based CellTiter 96 AQueous nonradioactive cell proliferation assay (Promega, Madison, WI). Viability of U2OS and HeLa cells was monitored by WST-based cell proliferation kit (Roche, Mannheim, Germany). Further details are provided in Supporting Information
A general note: Formazan colour is commonly taken as a measure of viable cells.

In assay [2] the test system is H1975 (lung adenocarcinoma) cells. The experiment in a line: MTS cytotoxicity assay, H1975 cells. In kind it is cell-based. As to conditions: 100 μM, 72 h.
From the text: as §1, §2

Assay [3] concerns the target T1, BRD4(1) (Homo sapiens, UniProt O60885).
T1 construct: amplify the N-terminal bromodomain region of the protein; made in house
Briefly: AlphaScreen peptide displacement assay (ALPHA), BRD4(1). In kind it is binding.

The test system of assay [4] is MV4;11 (AML) cells. The experiment in a line: MTS cytotoxicity assay, MV4;11 cells. In kind it is cell-based. As to conditions: Homo sapiens, viability after 72 h.
Assay [5] has as its target bromodomain of cAMP response element binding protein (CREB) binding protein (UniProt Q92793 1081-1197). The experiment in a line: AlphaScreen or HTRF; peptide displacement ALPHA assay; CREBBP bromodomain and biotinylated H3K56Ac peptide, protein and peptide concentration 200 nM (Table 1) or 50 nM (Table 2); small-molecule competitors; duplicate on the same plate. As to conditions: both partners purified.

bromodomain of cAMP response element binding protein (CREB) binding protein, sequence (Q92793 1081-1197): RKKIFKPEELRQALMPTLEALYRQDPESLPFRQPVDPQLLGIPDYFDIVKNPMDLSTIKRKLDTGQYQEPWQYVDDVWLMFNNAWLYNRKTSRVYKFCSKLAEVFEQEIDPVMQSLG

With `CC(=O)Oc1cc(-c2c(C)noc2C)cc(C(O)c2ccccc2)c1` (stereo not drawn) [Compound 9, 3-(3,5-Dimethylisoxazol-4-yl)-5-(hydroxy(phenyl)methyl)phenyl Acetate], in assay [1], the “effect on viability of A549 cells” value was “markedly reduced the viability”. For the same molecule, the “effect on viability of H1975 cells” value in assay [2] is listed as “markedly reduced the viability”.
Take `CCOc1cc(-c2c(C)noc2C)cc(C(O)c2ccccc2)c1` (stereo not drawn) [Compound 12, (3-(3,5-Dimethylisoxazol-4-yl)-5-ethoxyphenyl)(phenyl)methanol]: the “selectivity for BRD4(1) over CREBBP bromodomain” value in assay [3] (comparison of ALPHA IC50 values) is on record as “approximately 6 fold”. In assay [3] (for BRD4(1)), this molecule registered a ligand efficiency of 0.36.
For `CN1CCC(CNc2ccc3ncc(-c4cccc(OC(F)(F)F)c4)n3n2)CC1` [SGI-1176, SGI-1776], the IC50 (in general, the concentration needed to halve the response being measured) in assay [4] is 53 nM.

B1: H3K56Ac peptide (peptide)
peptide: ALREIRRYQKSTELLIRKLK
modifications: K(Ac) (acetyl-lysine) at the 10th residue (K56 of histone H3 by the peptide's name); K(biotin) at the C-terminal lysine
Regarding B1, the binding result in assay [5] was “binds”.
